38 molecules from patent US9447083B2, “N-acylhydrazone derivatives for selective T cell inhibitor and anti-lymphoid malignancy drug” (CHONG KUN DANG PHARMACEUTICAL CORP., priority 2012, dated 2016) can be followed below.

Structures are written as SMILES.

The test system of one test is Jurkat T cells. Nature of the test: Pro-apoptotic activity on Jurkat T cells (FITC-Annexin V / 7-AAD flow cytometry). In kind it is cell-based. Particulars: Homo sapiens, 72 hours, cells stained with FITC-Annexin V and 7-AAD among total cells, read-out: Cell Apoptosis Effect to Jurkat T Cell (% in 5 μM). As to the method: In order to investigate the effects of the prepared compounds, the apoptosis-inducing effects of the compounds on human T cell acute lymphoblastic leukemia cell line, Jurkat T cells, were evaluated in the following manner.
Jurkat T cells cultured in RPMI medium containing 10% fetal bovine serum (FBS) were collected and stained with trypan blue (Sigma). […] Then, the cells were centrifuged at 1200 rpm at room temperature for 5 minutes and re-suspended in 10% FBS-containing RPMI medium at a concentration of 1.5×10^5 cells/mL. 200 μL of the cell suspension was dispensed into each well of a flat bottom 96-well plate (Costar). Then, the cells were treated with 10 μL of the diluted compounds in RPMI medium at final concentrations of […] or 5 μM, and incubated in a 5% CO2 incubator at 37° C. for 72 hours. In a vehicle control group, the cells were treated with 10 μL of RPMI medium containing 1% of dimetylsulfoxide (DMSO, Sigma). The incubated cells were harvested, put into 5-mL FACS tubes (BD Falcon), washed with 1 mL of phosphate buffered saline (PBS), and then re-suspended in 0.1 mL of binding buffer (10 mM Hepes-NaOH, pH 7.4, 140 mM NaCl, […] CaCl2). The suspended cells were stained with fluorescein isothiocyanate (FITC)-Annexin V (BD Biosciences) and 7-amino-actinomycin D (7-AAD, e-Biosciences) at room temperature for 15 minutes. The stained cells were suspended in 0.3 mL of binding buffer and analyzed by a flow cytometer. Apoptosis was determined by the ratio (%) of cells stained with FITC-Annexin V and 7-AAD among the total cells (see Tables 10 and 11).
A general note: Flow cytometry measures light scatter and fluorescence of single cells or particles in a stream.
For `Cc1cc(CO)cc(C)c1OCC(=O)N/N=C/c1cccc2[nH]ccc12` [Compound 227, (E)-N′-((1H-indol-4-yl)methylene)-2-(4-(hydroxymethyl)-2,6-dimethylphenoxy)acetohydrazide], the cytotoxicity at 5 µM is 90%. As to `Cc1ccnc(C)c1OCC(=O)N/N=C/c1cccc2[nH]ccc12` [Compound 190, (E)-N′-((1H-indol-4-yl)methylene)-2-(2,4-dimethylpyridin-3-yloxy)acetohydrazide], the cytotoxicity at 5 µM was 100%. Same read-out and setting: the same measure for `Cc1ccccc1OCC(=O)N/N=C/c1ccc2[nH]ccc2c1` [Compound 014]: 100%; for `Cc1cc(C(N)=O)cc(C)c1OCC(=O)N/N=C/c1ccc2cc[nH]c2c1` [Compound 239]: 100%. Turning to `Cc1cc(C)c(OCC(=O)N(CCO)/N=C/c2ccc3cc[nH]c3c2)c(C)c1` [Compound 195, (E)-N′-((1H-indol-6-yl)methylene)-N-(2-hydroxyethyl)-2-(mesityloxy)acetohydrazide], the cytotoxicity at 5 µM was determined as 100%. Turning to `CC(=O)OCN(/N=C/c1ccc2cc[nH]c2c1)C(=O)COc1c(C)cc(C)cc1C` [Compound 252, (E)-(2-((1H-indol-6-yl)methylene)-1-(2-(mesityloxy)acetyl)hydrazinyl)methyl acetate], the cytotoxicity at 5 µM was found to be 100%. On the same count and under the same terms, with `Cc1ncccc1OCC(=O)N/N=C/c1cccc2[nH]ccc12` [Compound 187, (E)-N′-((1H-indol-4-yl)methylene)-2-((2-methylpyridin-3-yl)oxy)acetohydrazide] the figure was 100%; with `Cc1cc(C)c(OCC(=O)N/N=C/c2ccc3snnc3c2)c(C)c1` [Compound 206], 100%; with `Cc1cc(C)c(NCC(=O)N/N=C/c2cccc3[nH]ccc23)c(C)c1` [Compound 135, (E)-N′-((1H-indol-4-yl)methylene)-2-(mesitylamino)acetohydrazide], 100%.

With `Cc1cccc(C)c1OCC(=O)N/N=C/c1ccc2cc[nH]c2c1` [Compound 258, (E)-N′-((1H-indol-6-yl)methylene)-2-(2,6-dimethylphenoxy)acetohydrazide], the cytotoxicity at 5 µM was 100%.

In the case of `Cc1cc(C)c(NCC(=O)N/N=C/c2c[nH]c3ccccc23)c(C)c1` [Compound 136], the cytotoxicity at 5 µM worked out at 100%.

Take `Cc1ccnc(C)c1OCC(=O)N/N=C/c1ccc2cc[nH]c2c1` [Compound 191]: the cytotoxicity at 5 µM stood at 100%. Still for that read-out and setting: the same measure for `O=C(COc1ccccc1C(F)(F)F)N/N=C/c1cccc2[nH]ccc12` [Compound 192, (E)-N′-((1H-indol-4-yl)methylene)-2-(2-(trifluoromethyl)phenoxy)acetohydrazide]: 90%; for `Cc1cc(C)c(SCC(=O)N/N=C/c2c[nH]c3ccccc23)c(C)c1` [Compound 158, (E)-N′-((1H-indol-3-yl)methylene)-2-(mesitylthio)acetohydrazide]: 100%; for `Cc1ccccc1OCC(=O)N/N=C/c1ccc2cc[nH]c2c1` [Compound 034]: 90%. Still for that read-out and setting: the same measure for `Cc1cc(C)c(OCC(=O)N/N=C/c2cccc3c2ccn3CCO)c(C)c1` [Compound 180, (E)-N′-((1-(2-hydroxyethyl)-1H-indol-4-yl)methylene)-2-(mesityloxy)acetohydrazide]: 90%. With `Cc1cc(C)c(OCC(=O)N(C)/N=C/c2cccc3c2ccn3C)c(C)c1` [Compound 164, (E)-2-(mesityloxy)-N-methyl-N′-((1-methyl-1H-indol-4-yl)methylene)acetohydrazide], the cytotoxicity at 5 µM came to 100%. Consider `Cc1cc(C#N)cc(C)c1OCC(=O)N/N=C/c1ccc2cc[nH]c2c1` [Compound 237, (E)-N′-((1H-indol-6-yl)methylene)-2-(4-cyano-2,6-dimethylphenoxy)acetohydrazide], for which the cytotoxicity at 5 µM came out at 100%.

The test is the same for the next values; noted with them: Homo sapiens, 72 hours, cells stained with FITC-Annexin V and 7-AAD among total cells, read-out: Jurkat T Cell Apoptosis (% in 5 μM).
With `Cc1cc(C)c(OCC(=O)N/N=C/c2cccc3[nH]ccc23)c(-c2cccs2)c1` [Compound 344, (E)-N′-((1H-indol-4-yl)methylene)-2-(2,4-dimethyl-6-(thiophen-2-yl)phenoxy)acetohydrazide], the cytotoxicity at 5 µM is 100%. The same measure, in the same setting: the same measure for `COc1ccc(OCC(=O)N/N=C/c2ccc3cc[nH]c3c2)c(-c2ccco2)c1` [Compound 347]: 100%; for `CCc1nc(C)ccc1OCC(=O)N/N=C/c1cccc2[nH]ccc12` [Compound 329, (E)-N′-((1H-indol-4-yl)methylene)-2-((2-ethyl-6-methylpyridin-3-yl)oxy)acetohydrazide]: 100%.

As to `Cc1cccc(-c2ccoc2)c1OCC(=O)N/N=C/c1ccc2cc[nH]c2c1` [Compound 313, (E)-N′-((1H-indol-6-yl)methylene)-2-(2-(furan-3-yl)-6-methylphenoxy)acetohydrazide], the cytotoxicity at 5 µM was found to be 100%. On the same count and under the same terms, with `O=C(COc1cccnc1-c1ccsc1)N/N=C/c1ccc2cc[nH]c2c1` [Compound 343, (E)-N′-((1H-indol-6-yl)methylene)-2-((2-(thiophen-3-yl)pyridin-3-yl)oxy)acetohydrazide] the figure was 100%; with `O=C(COc1cccnc1-c1ccoc1)N/N=C/c1ccc2cc[nH]c2c1` [Compound 310, (E)-N′-((1H-indol-6-yl)methylene)-2-(2-(furan-3-yl)pyridin-3-yloxy)acetohydrazide], 100%; with `Cc1cccc(C2CCOC2)c1OCC(=O)N/N=C/c1ccc2cc[nH]c2c1` (centres unmarked) [Compound 311, (E)-N′-((1H-indol-6-yl)methylene)-2-(2-methyl-6-(tetrahydrofuran-3-yl)phenoxy)acetohydrazide], 100%. Same read-out and setting: the same measure for `Cc1cc(F)cc(C2CCOC2)c1OCC(=O)N(C)/N=C/c1ccc2ccn(C)c2c1` (centres unmarked) [Compound 380, (E)-2-(4-fluoro-2-methyl-6-(tetrahydrofuran-3-yl)phenoxy)-N-methyl-N′-((1-methyl-1H-indol-6-yl)methylene)acetohydrazide]: 100%; for `Cc1cc(C)c(OCC(=O)N/N=C/c2cccc3[nH]ccc23)c(C2CCOC2)c1` (centres unmarked) [Compound 320, (E)-N′-((1H-indol-4-yl)methylene)-2-(2,4-dimethyl-6-(tetrahydrofuran-3-yl)phenoxy)acetohydrazide]: 100%; for `O=C(COc1cccc(-c2cccnc2)c1)N/N=C/c1ccc2cc[nH]c2c1` [Compound 359]: 80%.

Take `O=C(COc1cccc(-c2cccnc2)c1)N/N=C/c1cccc2[nH]ccc12` [Compound 358, (E)-N′-((1H-indol-4-yl)methylene)-2-(3-(pyridin-3-yl)phenoxy)acetohydrazide]: the cytotoxicity at 5 µM is 100%.

For `Cc1cc(F)ccc1OCC(=O)N/N=C/c1ccc2cc[nH]c2c1` [Compound 291, (E)-N′-((1H-indol-6-yl)methylene)-2-(4-fluoro-2-methylphenoxy)acetohydrazide], the cytotoxicity at 5 µM stood at 100%.

In the case of `Cc1cc(C2CCOC2)cc(C)c1OCC(=O)N/N=C/c1cccc2[nH]ccc12` (centres unmarked) [Compound 337, (E)-N′-((1H-indol-4-yl)methylene)-2-(2,6-dimethyl-4-(tetrahydrofuran-3-yl)phenoxy)acetohydrazide], the cytotoxicity at 5 µM was determined as 100%. The same measure, in the same setting: the same measure for `Cc1cc(C)c(OCC(=O)N/N=C/c2ccc3cc[nH]c3c2)c(Br)c1` [Compound 260, (E)-N′-((1H-indol-6-yl)methylene)-2-(2-bromo-4,6-dimethylphenoxy)acetohydrazide]: 100%.

With `O=C(COc1cccc(-c2ccco2)c1)N/N=C/c1cccc2[nH]ccc12` [Compound 356, (E)-N′-((1H-indol-4-yl)methylene)-2-(3-(furan-2-yl)phenoxy)acetohydrazide], the cytotoxicity at 5 µM came out at 90%. As to `Cc1cc(C)c(OCC(=O)N/N=C/c2cccc3[nH]ccc23)c(Br)c1` [Compound 259, (E)-N′-((1H-indol-4-yl)methylene)-2-(2-bromo-4,6-dimethylphenoxy)acetohydrazide], the cytotoxicity at 5 µM turned out to be 100%. The same measure, in the same setting: with `Cc1cc(C)c(OCC(=O)N/N=C/c2ccc3cc[nH]c3c2)c(-c2ccco2)c1` [Compound 318] the figure was 100%. On to `Cc1cccc(OCC(=O)N/N=C/c2cccc3[nH]ccc23)c1C` [Compound 326, (E)-N′-((1H-indol-4-yl)methylene)-2-(2,3-dimethylphenoxy)acetohydrazide], for which the cytotoxicity at 5 µM is 95%. `Cc1cc(C)c(OCC(=O)N(C)/N=C/c2ccc3ccn(C)c3c2)c(C2CCOC2)c1` (centres unmarked) [Compound 375, (E)-2-(2,4-dimethyl-6-(tetrahydrofuran-3-yl)phenoxy)-N-methyl-N′-((1-methyl-1H-indol-6-yl)methylene)acetohydrazide]: the cytotoxicity at 5 µM is 100%.

`Cc1cc(C)c(OCC(=O)N(COC(=O)c2ccc(CN3CCOCC3)cc2)/N=C/c2ccc3cc[nH]c3c2)c(C)c1` [Compound 272, (E)-(2-((1H-indol-6-yl)methylene)-1-(2-(mesityloxy)acetyl)hydrazinyl)methyl 4-(morpholinomethyl)benzoate]: the cytotoxicity at 5 µM was 100%.
